Results from PubChem BioAssay AID449762 (Southern Research Specialized Biocontainment Screening …, 2010).
pIC50: −log10 of the molar value. Results filed as inconclusive are left out.

System: M. tuberculosis H37Rv growth inhibition, 7H9 media
Assay: M. tuberculosis growth inhibition, HTS (AID 449762);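 further: bacterial growth assessed after seven days of incubation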
Conditions: for IC90: measured here: IC90 growth inhibition

| SMILES | pIC50 | IC90 [µM] |
| --- | --- | --- |
| COc1ccccc1C1=NOC(COC(=O)c2ccc([N+](=O)[O-])cc2)C1 (stereo not given) | 4.46 | > 100 |
| CCCCn1cnc2cc(NCc3cccc(OC)c3O)ccc21 | 4.10 | > 100 |
| O=c1c2c(-c3ccccc3)csc2ncn1/N=C/c1ccc(O)c([N+](=O)[O-])c1 | 4.87 | 52.9 |
| c1ccc(CN2CCN(c3nc(NCc4ccco4)c4ccccc4n3)CC2)cc1 | 4.74 | 23.8 |
| Nc1c(C(=O)NC2CCCCC2)nsc1C(=O)OCC(=O)NC1CCCCC1 | 5.73 | 6.02 |
| CC1(c2cc([N+](=O)[O-])cc([N+](=O)[O-])c2)CC(C)(C)N(C(=O)c2ccccc2)c2ccccc21 (stereo not given) | 4.92 | 19.4 |
| S=C(NCCc1ccccc1)NN=C1CCCCCC1 | 4.64 | 26.6 |
| C[n+]1c(-c2ccccc2)cc(CCCCc2cc(-c3ccccc3)[n+](C)c(-c3ccccc3)c2)cc1-c1ccccc1 | 4.76 | 21.7 |
| O=[N+]([O-])c1c(C(Cl)Cl)nn(-c2ccc(Cl)cc2)c1N1CCCCC1 | 4.81 | 19.4 |
| CN(CC(=O)Nc1ccc(F)c(F)c1F)c1cnccn1 | 5.22 | 12.8 |
| CC1(C)OC(=O)C(=Cc2ccc[nH]2)C(=O)O1 | > 6.70 | 24.1 |
| COc1cc2c(C(=O)N3CCN(c4cccc(Cl)c4)CC3)cn(CC(C)C)c(=O)c2cc1OC | 4.32 | 53.9 |
| COc1ccc(OCC(=O)Nc2c(C(=O)N(CCN(C)C)Cc3ccco3)oc3ccccc23)cc1 | 4.60 | 27.5 |
| c1ccc(-c2nnc(-c3ccccn3)nn2)nc1 | 5.44 | 6.27 |
| CN1CCN(/N=C/c2c3ccccc3c(Cl)c3ccccc23)CC1 | 4.11 | > 100 |
| O=C(COc1cccc(Oc2ccccc2)c1)Nc1ncccn1 | 4.42 | > 100 |
| CCOc1ccc(/C=N/OCC(=O)Nc2cc(C)on2)cc1 | 4.53 | > 100 |
| Cc1ccc(CN2CCC(c3cc(-c4ccc(Cl)cc4)n[nH]3)CC2)cc1 | 4.94 | 14.8 |
| CCCn1c(=N)n(CC(=O)c2ccc(OCC(=O)OC)cc2)c2ccccc21 | 4.95 | 43.6 |
| c1ccc(-c2c3ccccc3nc3[nH]c4ccccc4c23)cc1 | 4.20 | > 100 |
| Cc1oc(C(=O)Nc2ccc(O)cc2)cc1COc1ccccc1 | 4.90 | 43.6 |
| O=C(c1cccc(-c2ccco2)c1)N1CCCC(N2CCN(c3ccc(F)cc3)CC2)C1 (stereo not given) | 4.28 | 78.8 |

| SMILES | pIC50 | IC90 [µM] |
| --- | --- | --- |
| S=C(Nc1ccc(Cl)cc1)Nc1cccc2cnccc12 | 5.35 | 5.24 |
| Cc1ccc(-c2ccnc(=S)[nH]2)cc1 | 4.35 | > 100 |
| CCn1cc(Br)c(C(=O)Nc2ccc(C(=O)OC(C)C)cc2)n1 | 4.45 | 57.8 |
| CCc1ccc2oc(-c3cc(N=Cc4cccc(OC)c4O)ccc3O)nc2c1 | 4.45 | 69.3 |
| COc1ccc(C(=O)OCCNC(=O)c2c(Cl)nc3ccccn23)cc1 | 5.00 | 16.1 |
| COc1cc(C)ccc1OCCOc1c(C)cc(Cl)cc1Cl | 4.67 | > 100 |
| NC1=NC[C@H](Cc2ccc(O)cc2)N1CCc1cccc2ccccc12 | 4.67 | 24.1 |
| O=C(CSc1nc(Nc2ccccc2)nc(N2CCOCC2)n1)Nc1cc(Cl)ccc1O | 4.36 | > 50 |
| CC(C)(Oc1ccc(Cl)cc1)C(=O)OCC(=O)N1CCN(c2ccccc2)CC1 | 4.52 | 98.2 |
| CCOC(=O)Cc1csc(NC(=O)c2c(O)c3c(n(CC(C)C)c2=O)CCCC3)n1 | 5.28 | 72 |
| CC(C)(C)C1CCc2c(sc3nc(SCC(N)=O)nc(N)c23)C1 (stereo not given) | 4.81 | 31.8 |
| C=CCN(CC(=O)c1sc(C(=O)OCC)nc1C)c1cccc(Br)c1 | 4.71 | 28.8 |
| O=C(CSc1nnnn1C1CCCCC1)Nc1nc2c(s1)CCCC2 | 4.51 | 59.3 |
| COc1ccccc1Nc1nc(N)nc(CCl)n1 | 5.78 | 8.82 |
| Cc1cc(-c2nnc3n2CCCCC3)c(C)n1-c1ccccc1 | 4.34 | 51.4 |
| O=C(Nc1cc(N2CCOCC2)ncn1)NC1(C(F)(F)F)Oc2ccc(Cl)cc2O1 (stereo not given) | 4.93 | 18.9 |
| COc1ccc(N2CN=C3SCC(=O)N3C2)cc1 |  | > 100 |
| Cc1sc2ncnc(Oc3ccc(-n4ccnc4)cc3)c2c1C | 4.48 | 55.5 |
| CCOCCN1CCN(c2c(CC)c(C)nc3cc(-c4cc(OC)cc(OC)c4)nn23)CC1 | 4.59 | 38.9 |
| CC1CCC(C(C)C)C(OC(=O)Cn2c(-c3ccc(F)cc3)[n+](C)c3ccccc32)C1 (stereo not given) | 5.04 | 13 |
| O=C(Nc1ccc(Cl)cc1)N1CCN(c2ccc3nnc(-c4ccc(F)cc4)n3n2)CC1 | 4.86 | 26.4 |
| CC1=NN(C(N)=S)C(=O)C1N=Nc1ccc(C)c(Br)c1 (stereo not given) | 4.94 | 19.1 |

| SMILES | pIC50 | IC90 [µM] |
| --- | --- | --- |
| Cc1cc(C2N=C(N)Nc3nc4ccccc4n32)c(C)n1-c1ccccc1Cl (stereo not given) | 4.92 | 16.6 |
| O=C(Nc1nc2c(s1)CCCC2)c1cc(-c2ccc3c(c2)OCO3)nc2ccccc12 | 4.18 | > 100 |
| Nc1ccc(Oc2ccc(F)cc2)nc1 | 4.22 | 90.1 |
| COc1ccc(C2=NN(C(=O)COC(=O)c3ccc(S(C)(=O)=O)c([N+](=O)[O-])c3)C(c3ccco3)C2)cc1 (stereo not given) | 5.18 | 14.9 |
| Cc1cc(=O)n2cccc(O)c2n1 | 5.23 | 15.6 |
| Cc1ccc(C)c(NC(=O)c2cc(-c3ccccc3)nn2-c2ccccc2)c1 | 4.46 | 59.6 |
| CCCCS/C(N)=N/N=C/c1cc(C)ccc1O | 4.91 | 13.9 |
| O=C(NCCCN1CCOCC1)c1cc2c([nH]c3ccccc32)c(-c2cccc(Br)c2)n1 | 4.98 | 13.4 |
| c1ccc(CN2CCC(Nc3nc(-c4ccccc4)nc4ccccc34)CC2)cc1 | 4.99 | 16.3 |
| O=C1/C(=C/Nc2ccc3c(c2)OCO3)CCc2ccccc21 | 4.14 | > 100 |
| O=C(Nc1ccc(OC(F)(F)F)cc1)c1ccc2c(c1)no[n+]2[O-] | > 6.70 | 0.2 |
| CCCCn1c(SCc2ncc(-c3ccccc3)o2)nc2cc(S(N)(=O)=O)ccc21 | 5.48 | 5.84 |
| Cc1ccc(C(C(=O)NCC2CCCO2)N(Cc2ccccc2)C(=O)c2ccc(-c3ccccc3)[nH]2)o1 (stereo not given) | 4.63 | 35.6 |
| NC1=NC[C@H](CC2CCCCC2)N1CCc1cc(C(F)(F)F)cc(C(F)(F)F)c1 | 5.05 | 11.6 |
| CCc1cc(C(=O)NNC(=O)CCl)sc1C | 5.59 | 4.62 |
| Cc1ccccc1Cn1cc(NC(=O)c2noc(C(C)C)c2[N+](=O)[O-])cn1 | 5.29 | 8.72 |
| Cc1ccccc1NC1=C/C(=N\S(=O)(=O)c2cccs2)c2ccccc2C1=O | 5.10 | 11.8 |
| C=CCS/C(N)=N\N=C\c1c(O)ccc2ccccc12 | 4.91 | 48.6 |
| Cc1ccc(C2=NNC3(CCOC(C)(C)C3)S2)cc1 (stereo not given) | 4.95 | 14.9 |
| C=C1CCC[C@]2(C)C[C@H]3OC(=O)C(CNC(C)CCCC(C)C)[C@H]3CC12 (stereo not given in full) | 4.65 | 24.2 |
| O=C(CSc1nnnn1-c1ccc2c(c1)OCCO2)OC1CCCCC1 | 4.93 | 21.7 |
| CC(C)(C)C(=O)/C(=C\c1cccc([N+](=O)[O-])c1)n1cncn1 | 5.82 | 1.72 |

| SMILES | pIC50 | IC90 [µM] |
| --- | --- | --- |
| CCN1CCN(c2oc(COc3ccc(-c4ccccc4)cc3)nc2C#N)CC1 | 4.36 | 48.4 |
| COc1ccc2cc1Oc1ccc(cc1)C[C@H]1c3c(cc(OC)c4c3Oc3c(ccc5c3[C@H](C2)N(C)CC5)O4)CCN1C | 5.31 | 6.44 |
| Nc1n[nH]c(C2CC2)c1N=Nc1ccc(Cl)cc1 | 4.71 | 41 |
| CCOC(=O)CSCC(=O)N1CCC(Cc2ccccc2)CC1 | 5.27 | 19.6 |
| O=C(CNC(=O)c1ccco1)OCc1ccc(C(=O)Oc2ccccc2)cc1 | 5.34 | 16.2 |
| Cc1cccc(N(C(=O)c2nsc(Cl)c2Cl)C(C(=O)NC2CCCC2)c2ccc(O)cc2)c1C (stereo not given) | 4.66 | 28.2 |
| Cc1ccc(OC/C(O)=C(\C#N)c2nc3ccccc3s2)cc1 | 4.68 | 34 |
| O=C(c1cc(COc2ccc(F)cc2F)on1)N1CCCC(c2ccccc2)C1 (stereo not given) | 4.75 | 39.8 |
| O=C(c1cnn2c(C(F)F)cc(-c3ccccc3)nc12)N1CCc2ccccc2C1 | 4.39 | 49 |
| C/C(=N\Nc1ccc(S(=O)(=O)N2CCCCC2)cn1)c1cccc(Br)c1 | 4.49 | > 100 |
| CCOc1ccc(N/C(C)=C/C(=O)c2ccc3c(c2)OCCO3)cc1 | 4.94 | 47.2 |
| Nc1c2c(nc3sc4c(c13)CCCCC4)CCCC2 | 5.34 | 13.8 |
| O=C(Nc1nnc(-c2ccccc2Cl)o1)c1nc2ccccc2s1 | 5.22 | 6.78 |
| COc1ccccc1N1CCN(c2ccc(-c3ccccc3)nn2)CC1 | 4.07 | > 100 |
| O=[N+]([O-])c1cc(-c2ncccn2)c([N+](=O)[O-])s1 | 4.89 | 32.5 |
| COc1cc(NC(=O)C/C(C)=N/NC(=O)c2ccccn2)c(OC)cc1Cl | 5.52 | 4.13 |
| Cc1ccc(C)c(N2CCN(C(=O)c3ccc4nc(N5CCOCC5)sc4c3)CC2)c1 | 4.42 | 47.4 |
| Cc1nc(NC(=O)c2ccccc2)sc1C1(C)CC(c2ccc(OC(F)(F)F)cc2)=NO1 (stereo not given) | 4.61 | 41.1 |
| CCOC(=O)C1CCN(CC(O)COc2ccc(C(C)(C)CC)cc2)CC1 (stereo not given) | 4.64 | 29.5 |
| Cc1nc([N+](=O)[O-])c(Br)n1CC(=O)c1ccc2ccccc2c1 | 5.67 | 11.9 |
| COc1cccc2c1C(CO)N1C(C#N)C3CC(C(=O)O)C(C1C2)N3C (stereo not given) | 5.57 | 2.98 |
| COc1ccc(-c2nc(NC(=O)Cn3ccc(C(F)(F)F)n3)sc2C)cc1 | > 6.70 | 2.92 |
